Results published in US20100120886A1, “ARYL-SUBSTITUTED SULFONAMIDES FOR THE TREATMENT OF COGNITIVE OR FOOD INGESTION RELATED DISORDERS” (LABORATORIOS DEL DR. ESTEVE, S.A., priority 2007, published 2010).

Target: T1, 5HT6 human recombinant receptor (Homo sapiens, UniProt P50406)
T1 construct: purchased Receptor Biology; host or cells: HEK-293 cell membranes
Experiment: Binding with Serotonin Receptor 5HT6 ([3H]-LSD radioligand, HEK-293 cell membranes)
Conditions: [3H]-LSD 2.7 nM, HEK-293 membranes; for inhibition at 0.01 µM: compound 10 nM; for inhibition at 0.01 µM / inhibition at 0.1 µM: 60 min, 37° C.; for inhibition at 0.1 µM: compound 100 nM; for Ki: non-linear regression EBDA/LIGAND
Procedure: Binding with Serotonin Receptor 5HT6
Cell membranes of HEK-293 cells expressing the 5HT6 human recombinant receptor were supplied by Receptor Biology. In said membranes the receptor concentration is 2.18 pmol/mg protein and the protein concentration is 9.17 mg/ml. The experimental protocol follows the method of B. L. Roth et al. [B. L. Roth, S. C. Craigo, M. S. Choudhary, A. Uluer, F. J. Monsma, Y. Shen, H. Y. Meltzer, D. R. Sibley: Binding of Typical and Atypical Antipsychotic Agents to 5-Hydroxytryptamine-6 and Hydroxytriptamine-7 Receptors. The Journal of Pharmacology and Experimental Therapeutics, 1994, 268, 1403] with slight changes. The commercial membrane is diluted (1:40 dilution) with the binding buffer: 50 mM Tris-HCl, 10 mM MgCl2, 0.5 mM EDTA (pH 7.4). The radioligand used is [^3H]-LSD at a concentration of 2.7 nM with a final volume of 200 μl. incubation is initiated by adding 100 μl of membrane suspension, (≈22.9 μg membrane protein), and is prolonged for 60 minutes at a temperature of 37° C. The incubation is ended by fast filtration in a Brandel Cell Harvester through fiber glass filters made by Schleicher & Schuell GF 3362 pretreated with a solution of polyethylenimine at 0.5%. The filters are washed three times with three milliliters of buffer Tris-HCl 50 mM pH 7.4. The filters are transferred to flasks and 5 ml of Ecoscint H liquid scintillation cocktail are added to each flask. The flasks are allowed to reach equilibrium for several hours before counting with a Wallac Winspectral 1414 scintillation counter. Non-specific binding is determined in the presence of 100 μM of serotonin. Tests were made in triplicate. The inhibition constants (Ki, nM) were calculated by non-linear regression analysis using the program EBDA/LIGAND [Munson and Rodbard, Analytical Biochemistry, 1980, 107, 220].

T1 sequence (P50406 whole entry): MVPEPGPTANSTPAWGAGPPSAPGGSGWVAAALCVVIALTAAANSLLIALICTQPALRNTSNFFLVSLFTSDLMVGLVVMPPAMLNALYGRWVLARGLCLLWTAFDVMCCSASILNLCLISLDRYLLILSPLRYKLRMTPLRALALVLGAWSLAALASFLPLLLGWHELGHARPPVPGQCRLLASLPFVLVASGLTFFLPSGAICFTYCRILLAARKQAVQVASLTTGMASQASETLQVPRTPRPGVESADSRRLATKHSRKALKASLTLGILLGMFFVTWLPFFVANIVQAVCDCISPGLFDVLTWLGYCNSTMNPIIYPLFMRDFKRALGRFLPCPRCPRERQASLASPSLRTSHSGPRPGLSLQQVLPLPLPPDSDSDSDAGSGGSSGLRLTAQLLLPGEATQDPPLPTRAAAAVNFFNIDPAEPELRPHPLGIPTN

Row | SMILES | inhibition at 0.01 µM [%] | inhibition at 0.1 µM [%] | Ki [nM]
1 | CNCCc1cn(C)c2ccc(NS(=O)(=O)c3ccc4c(Cl)cccc4c3)cc12 [Example 6, 5-Chloro-naphthalene-2-sulfonic acid [1-methyl-3-(2-methylamino-ethyl)-1H-indol-5-yl]-amide] | 39.7 | 79.8 | –
2 | CNCCc1c[nH]c2ccc(NS(=O)(=O)c3ccc4c(Cl)cccc4c3)cc12 [Example 4, 5-Chloro-naphthalene-2-sulfonic acid [3-(2-methylamino-ethyl)-1H-indol-5-yl]-amide] | 64.9 | 73.5 | 2.1 ± 1.3
3 | CCNCCc1c[nH]c2ccc(NS(=O)(=O)c3cccc4ccccc34)cc12 [Example 1, Naphthalene-1-sulfonic acid [3-(2-ethylamino-ethyl)-1H-indol-5-yl]-amide] | – | – | 3
4 | NCCc1c[nH]c2ccc(NS(=O)(=O)c3cccc4ccccc34)cc12 [Example 5, Naphthalene-1-sulfonic acid [3-(2-amino-ethyl)-1H-indol-5-yl]-amide] | 41.6 | 76.9 | 26.4
5 | CNCCc1c[nH]c2ccc(NS(=O)(=O)c3cccc4ccccc34)cc12 [Example 2, Naphthalene-1-sulfonic acid [3-(2-methylamino-ethyl)-1H-indol-5-yl]-amide] | 83 | 91.2 | 2.9
6 | CCNCCc1c[nH]c2ccc(NS(=O)(=O)c3ccc4c(Cl)cccc4c3)cc12 [Example 3, 5-Chloro-naphthalene-2-sulfonic acid [3-(2-ethylamino-ethyl)-1H-indol-5-yl]-amide] | 60.1 | 82.9 | 2
7 | NCCc1c[nH]c2ccc(NS(=O)(=O)c3ccc4c(Cl)cccc4c3)cc12 [Example 8, 5-Chloro-naphthalene-2-sulfonic acid [3-(2-amino-ethyl)-1H-indol-5-yl]-amide] | 65.6 | 86.1 | 1.4
8 | NCCc1c[nH]c2ccc(NS(=O)(=O)c3ccc4ccccc4c3)cc12 [Example 7, Naphthalene-2-sulfonic acid [3-(2-amino-ethyl)-1H-indol-5-yl]-amide] | 66 | 84.6 | 7.1 ± 1.1
9 | Cn1cc(CCN)c2cc(NS(=O)(=O)c3ccc4c(Cl)cccc4c3)ccc21 [Example 9, 5-Chloro-naphthalene-2-sulfonic acid [3-(2-amino-ethyl)-1-methyl-1H-indol-5-yl]-amide] | 34.1 | 78 | –
